Source: patent US8729074B2, “Inhibitors of PI3 kinase” (Amgen Inc., priority 2009, dated 2014)

Key:
PI3Kα = PI3Kα (Homo sapiens (Human), UniProt P42336); test: In vitro PI3 kinase enzyme assay (PI3K ATPLoss); assay type: biochemical; details: average if run more than once
Method: Recombinant Expression of PI3K Enzymes
Full length p110 subunits of PI3K α, β and δ, N-terminally labeled with polyHis tag, can be co-expressed with p85 with Baculo virus expression vectors in sf9 insect cells. P110/p85 heterodimers can be purified by sequential Ni-NTA, Q-HP, Superdex-100 chromatography. Purified α, β and δ isozymes can be stored at −20° C. in 20 mM Tris, pH 8, 0.2M NaCl, 50% glycerol, 5 mM DTT, 2 mM Na cholate. […] The γ isozyme can be purified by sequential Ni-NTA, Superdex-200, Q-HP chromatography. The γ isozyme can be stored frozen at −80° C. in NaH2PO4, pH 8, 0.2M NaCl, 1% ethylene glycol, 2 mM β-mercaptoethanol.
In Vitro PI3 Kinase Enzyme Assays (PI3K ATPLoss)
PI3K enzyme assays (alpha, beta, delta and gamma) can be performed in 25 μL with the above final concentrations of components in white polyproplyene plates. Phosphatidyl inositol phosphoacceptor, PtdIns(4,5)P2 (e.g., P4508) can be obtained from Echelon Biosciences, Salt Lake City, Utah. […] Test compounds can be dissolved in DMSO and diluted with three-fold serial dilutions. The compound in DMSO (1 μL) may be added per test well, and the inhibition relative to reactions containing no compound, with and without enzyme can be determined. After assay incubation at RT, the reaction can be stopped and residual ATP can be determined by addition of an equal volume of a commercial ATP bioluminescence kit (Perkin Elmer EasyLite, Perkin Elmer, Waltham, Mass.) according to the manufacturer's instructions, and detected using an Analyst GT luminometer.

[1] = system: phosphorylation of Akt at Serine 473 in U87 MG cells; test: pAkt AlphaScreen (U87 cell); assay type: cell-based; details: Homo sapiens, U-87 MG, 2 h; pAkt Ser473, U87 MG cells, compound two hours; average if run more than once
Method: pAkt AlphaScreen (U87 Cell)
The pAkt AlphaScreen® assay (PerkinElmer, Waltham, Mass.) determines whether there is phosphorylation of Akt at Serine 473 by recruitment of a phosphospecific antibody. This assay was performed using U87 MG cells. The U87 growth media consists of MEM (Gibco, Carlsbad, Calif.) supplemented with 10% FBS (Gibco), 1× Non-Essential Amino Acids (Gibco) and 1× Penicillin/Streptomycin/Glutamine (Gibco). The cells were maintained weekly using 0.05% Trypsin (Gibco) and replated in 150 mm TC—Treated Culture Dishes (Corning, Corning, N.Y.).
The first day of the assay, the adherent cells were trypsinized, media was added to the loose cells and cells were mixed to a homogenous mixture. 0.5 ml of the homogenous mixture was counted on the Beckman Coulter® Vi-CELL™ XR (Fullerton, Calif.). 50 frames of cells were counted and the number of viable cells was determined. The cells were then diluted to 0.25 million cells per ml, and centrifuged at 200 rcf for 5 minutes. The media was removed and the cells were reconstituted in fresh media for plating. The cells were plated at 20 μl per well on the PerkinElmer® Flexprop PLUS in Low Volume 384 Well White Tissue Culture Plates (Corning) with a final cell density of 5K cells per well. The plates were incubated overnight at 37° Celsius, 5% CO2.
On the second day, the compound plates were prepared, the cells were treated with compound and the pAkt reaction mix was added to the cell lysate. 384 well compound plates were prepared containing 1 μl of compound per well starting at 5 mM and diluted 1:2 across the row, resulting in a 22 well serial dilution. 39 μl of growth media was added to the compound plate in rows 1-22 using the PerkinElmer® Flexprop PLUS resulting in a DMSO concentration of 2.5%. The cell plates and diluted compound plates were put onto the VELOCITY11™ VPREP™ 384 ST where the compound plate was mixed and 5 μl of serially diluted compound or controls was added to the cell plate. The final concentration of the compounds was 25 μM serially diluted to 11.9 pM in 0.5% DMSO. The cell plates were then incubated with compound for two hours at 37° Celsius, 5% CO2. After two hours, the media in the cell plates was aspirated using the BioTek® ELx405HT plate washer (Winooski, Vt.) removing the majority of media and compound without disturbing the adherent U87 cells. The following assay reagents are components of the SureFire® Akt (Ser 473) Phosphorylation 50K Point Kit (TGR BioSciences, Adelaide, Australia) and an IgG Detection Kit (PerkinElmer, Waltham, Mass.). 5 μl of 1× Lysis Buffer was added to each well using the PerkinElmer® Flexprop PLUS. The plates were then incubated at room temperature on a shaker for ten minutes. The AlphaScreen® reaction was prepared under low light conditions (subdued or green light) including p-Akt (Ser 473) Reaction Buffer, Dilution Buffer, Activation Buffer, Acceptor Beads and Donor Beads at a ratio of 40:20:10:1:1 respectively. The AlphaScreen® reaction was added to the cell lysate at 6 μl per well using the PerkinElmer® Flexprop PLUS. The plates were placed in a humid environment to reduce edge effects and incubated overnight at room temperature with restricted air flow in the dark.
On the final day of the experiment, the plates were read on the PerkinElmer® EnVision™ 2103 Multilable Reader using the standard AlphaScreen® readout. The POC is calculated and the data is analyzed to report the IC50 IP for pAkt at Serine 473.
Activity data for the compounds tested in the PI3K cell based Akt assay is provided in Table 1 under the column heading U87

Sequence of PI3Kα (P42336 whole entry): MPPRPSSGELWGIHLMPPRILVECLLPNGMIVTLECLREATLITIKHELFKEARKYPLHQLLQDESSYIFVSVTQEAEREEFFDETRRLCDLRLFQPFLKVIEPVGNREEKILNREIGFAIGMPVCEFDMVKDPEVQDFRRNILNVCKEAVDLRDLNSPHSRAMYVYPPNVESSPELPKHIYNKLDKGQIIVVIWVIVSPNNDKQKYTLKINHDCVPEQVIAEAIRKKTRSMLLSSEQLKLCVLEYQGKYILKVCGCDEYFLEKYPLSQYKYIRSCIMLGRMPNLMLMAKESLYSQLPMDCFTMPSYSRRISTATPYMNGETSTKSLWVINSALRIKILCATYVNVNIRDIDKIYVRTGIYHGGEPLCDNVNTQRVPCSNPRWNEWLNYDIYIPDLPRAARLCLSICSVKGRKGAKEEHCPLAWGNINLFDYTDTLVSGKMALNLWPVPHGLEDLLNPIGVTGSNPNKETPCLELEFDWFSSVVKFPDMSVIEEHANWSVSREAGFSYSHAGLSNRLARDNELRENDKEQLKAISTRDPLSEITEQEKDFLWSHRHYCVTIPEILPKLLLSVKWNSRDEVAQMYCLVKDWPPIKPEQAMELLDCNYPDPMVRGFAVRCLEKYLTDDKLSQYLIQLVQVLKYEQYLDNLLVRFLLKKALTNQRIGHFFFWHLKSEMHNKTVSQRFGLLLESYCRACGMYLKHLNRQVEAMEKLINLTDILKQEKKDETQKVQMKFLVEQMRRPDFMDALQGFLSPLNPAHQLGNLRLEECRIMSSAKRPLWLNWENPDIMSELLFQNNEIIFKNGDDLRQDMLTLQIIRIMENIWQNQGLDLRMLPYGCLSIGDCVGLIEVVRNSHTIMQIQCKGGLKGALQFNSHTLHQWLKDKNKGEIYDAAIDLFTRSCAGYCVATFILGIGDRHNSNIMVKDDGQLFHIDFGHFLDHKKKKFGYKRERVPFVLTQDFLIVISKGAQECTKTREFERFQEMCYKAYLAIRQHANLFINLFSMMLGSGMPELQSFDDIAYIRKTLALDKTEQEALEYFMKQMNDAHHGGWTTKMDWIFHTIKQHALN
Sequence of PI3Kα (P27986 whole entry partner): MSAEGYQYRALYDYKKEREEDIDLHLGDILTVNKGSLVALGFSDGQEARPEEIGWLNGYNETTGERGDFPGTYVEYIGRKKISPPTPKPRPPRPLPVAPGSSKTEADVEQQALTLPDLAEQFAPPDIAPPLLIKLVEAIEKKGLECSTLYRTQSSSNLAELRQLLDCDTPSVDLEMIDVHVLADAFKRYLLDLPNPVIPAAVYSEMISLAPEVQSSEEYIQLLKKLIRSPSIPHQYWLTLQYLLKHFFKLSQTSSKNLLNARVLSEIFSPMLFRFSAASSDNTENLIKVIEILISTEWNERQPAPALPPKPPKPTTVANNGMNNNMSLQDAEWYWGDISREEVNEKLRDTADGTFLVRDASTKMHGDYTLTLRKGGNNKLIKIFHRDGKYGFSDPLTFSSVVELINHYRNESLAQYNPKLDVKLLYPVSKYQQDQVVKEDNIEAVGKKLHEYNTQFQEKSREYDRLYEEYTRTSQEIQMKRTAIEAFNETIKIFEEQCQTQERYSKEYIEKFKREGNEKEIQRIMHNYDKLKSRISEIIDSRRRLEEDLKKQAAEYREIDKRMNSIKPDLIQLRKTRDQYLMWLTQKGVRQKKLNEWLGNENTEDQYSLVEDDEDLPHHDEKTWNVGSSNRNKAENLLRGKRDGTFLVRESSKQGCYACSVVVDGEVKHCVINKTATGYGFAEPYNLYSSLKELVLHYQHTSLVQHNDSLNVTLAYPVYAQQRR

| Structure (SMILES) | IC50 (PI3Kα) | IC50 [1] |
| --- | --- | --- |
| O=S(=O)(Nc1cc(-c2cnc3ccccn23)cnc1Cl)c1ccc(F)cc1 [Example 3, N-(2-Chloro-5-imidazo[1,2-a]pyridin-3-yl-3-pyridinyl)-4-fluorobenzenesulfonamide] | 0.03 µM |  |
| Cc1ccn2c(-c3cnc(Cl)c(NS(=O)(=O)c4ccc(F)cc4)c3)cnc2c1 [Example 4, N-(2-Chloro-5-(7-methylimidazo[1,2-a]pyridin-3-yl)-3-pyridinyl)-4-fluorobenzenesulfonamide] | 0.013 µM |  |
| Cc1nc2ccc(Br)cn2c1-c1cnc(Cl)c(NS(=O)(=O)c2ccc(F)cc2)c1 [Example 5, N-(5-(6-Bromo-2-methylimidazo[1,2-a]pyridin-3-yl)-2-chloro-3-pyridinyl)-4-fluorobenzenesulfonamide] | 0.016 µM | 1.22 µM |
| O=S(=O)(Nc1cc(-c2cnc3ccc(Br)cn23)cnc1Cl)c1ccc(F)cc1 [Example 6, N-(5-(6-Bromoimidazo[1,2-a]pyridin-3-yl)-2-chloro-3-pyridinyl)-4-fluorobenzenesulfonamide] | 0.014 µM | 0.208 µM |
| O=S(=O)(Nc1cc(-c2cnc3ccc(-c4ccncc4)cn23)cnc1Cl)c1ccc(F)cc1 [Example 7, N-(2-Chloro-5-(6-(4-pyridinyl)imidazo[1,2-a]pyridin-3-yl)-3-pyridinyl)-4-fluorobenzenesulfonamide] | 0.005 µM | 0.042 µM |
| O=S(=O)(Nc1cc(-c2cnc3ccc(-c4cccnc4)cn23)cnc1Cl)c1ccc(F)cc1 [Example 8, N-(2-Chloro-5-(6-(3-pyridinyl)imidazo[1,2-a]pyridin-3-yl)-3-pyridinyl)-4-fluorobenzenesulfonamide] | 0.004 µM | 0.083 µM |
| O=S(=O)(Nc1cc(-c2cnc3ccc(N4CCOCC4)cn23)cnc1Cl)c1ccc(F)cc1 [Example 9, N-(2-Chloro-5-(6-(4-morpholinyl)imidazo[1,2-a]pyridin-3-yl)-3-pyridinyl)-4-fluorobenzenesulfonamide] | 0.006 µM | 0.076 µM |
| COc1cc(-c2cnc3ccccn23)cnc1OC [Example 10, 3-(5,6-Dimethoxy-3-pyridinyl)imidazo[1,2-a]pyridine] | 15.7 µM | > 25 µM |
| COc1cc(-c2cnc3ccc(Br)cn23)cnc1OC [Example 11, 6-Bromo-3-(5,6-dimethoxy-3-pyridinyl)imidazo[1,2-a]pyridine] | 1.5 µM | 4.98 µM |
| COc1cc(-c2cnc3ccc(-c4ccncc4)cn23)cnc1OC [Example 12, 3-(5,6-Dimethoxy-3-pyridinyl)-6-(4-pyridinyl)imidazo[1,2-a]pyridine] | 0.861 µM | 2.19 µM |
| COc1cc(-c2cnc3ccc(N4CCOC4=O)cn23)cnc1OC [Example 13, 3-(3-(5,6-Dimethoxy-3-pyridinyl)imidazo[1,2-a]pyridin-6-yl)-1,3-oxazolidin-2-one] | 4.67 µM | > 25 µM |
| COc1cc(-c2cnc3ccc(N4CCOCC4)cn23)cnc1OC [Example 16, 3-(5,6-Dimethoxy-3-pyridinyl)-6-(4-morpholinyl)imidazo[1,2-a]pyridine] |  | 3.99 µM |
| CN(C)S(=O)(=O)Nc1cc(-c2cnc3ccc(-c4ccncc4)cn23)cnc1Cl [Example 18, N-(2-Chloro-5-(6-(pyridin-4-yl)imidazo[1,2-a]pyridin-3-yl)pyridin-3-yl)dimethylaminosulfonamide] |  | 0.007 µM |
| CN(C)S(=O)(=O)Nc1cc(-c2cnc3ccc(-c4ccnc(C(F)(F)F)c4)cn23)cnc1Cl [Example 19, N-(2-Chloro-5-(6-(2-(trifluoromethyl)pyridin-4-yl)imidazo[1,2-a]pyridin-3-yl)pyridin-3-yl)dimethylaminosulfonamid] |  | 0.009 µM |
| CS(=O)(=O)Nc1cc(-c2cnc3cc(-c4cccnc4)ccn23)cnc1Cl [Example 20, N-(2-Chloro-5-(7-(pyridin-3-yl)imidazo[1,2-a]pyridin-3-yl)pyridin-3-yl)methanesulfonamide] |  | 0.032 µM |
| CN(C)S(=O)(=O)Nc1cc(-c2cnc3cc(-c4ccncc4)ccn23)cnc1Cl [Example 21, N′-(2-Chloro-5-(7-(4-pyridinyl)imidazo[1,2-a]pyridin-3-yl)-3-pyridinyl)-N,N-dimethylsulfamide] |  | 0.281 µM |
| CN(C)S(=O)(=O)Nc1cc(-c2cnc3cc(-c4cccnc4)ccn23)cnc1Cl [Example 22, N′-(2-Chloro-5-(7-(3-pyridinyl)imidazo[1,2-a]pyridin-3-yl)-3-pyridinyl)-N,N-dimethylsulfamide] |  | 0.168 µM |
| Cc1cc2ncc(-c3cnc(Cl)c(NS(=O)(=O)N(C)C)c3)n2cc1-c1ccncc1 [Example 23, N′-(2-Chloro-5-(7-methyl-6-(4-pyridinyl)imidazo[1,2-a]pyridin-3-yl)-3-pyridinyl)-N,N-dimethylsulfamide] |  | 0.008 µM |
| O=S(=O)(Nc1cc(-c2cnc3ccc(Cl)nn23)cnc1Cl)c1ccc(F)cc1 [Example 25, N-(2-Chloro-5-(6-chloroimidazo[1,2-b]pyridazin-3-yl)pyridin-3-yl)-4-fluorobenzenesulfonamide] | 0.047 µM |  |
